Earlier results on one compound are cited in US20260345480A1, “PHARMACEUTICAL DOSAGE FORMS FOR PULSATILE RELEASE” (CHIESI FARMACEUTICI S.P.A., priority 2023, published 2026).

The test system of this data set is animals. As to conditions: continuous infusion for periods longer than 24 hours.

On to `Cc1c(O)c(=O)ccn1C` [deferiprone], for which the “toxicity on continuous infusion (in words)” value is “potential toxicity of deferiprone observed in animals undergoing continuous infusion for periods longer than 24 hours”.
